For one assay, the system named is A549. Kind of assay: cells. The note with it: Homo sapiens, A549, 72 h.
The subject of another assay is HCT-116. Kind of assay: cells. The note with it: Homo sapiens, HCT-116, 72 h.
The subject of a further assay is DU-145. Kind of assay: cells. The following applies: Homo sapiens, DU-145, 72 h.
Assay [1] concerns the target T1, DNA topoisomerase 1 (Homo sapiens) (UniProt P11387).
T1 sequence (whole entry): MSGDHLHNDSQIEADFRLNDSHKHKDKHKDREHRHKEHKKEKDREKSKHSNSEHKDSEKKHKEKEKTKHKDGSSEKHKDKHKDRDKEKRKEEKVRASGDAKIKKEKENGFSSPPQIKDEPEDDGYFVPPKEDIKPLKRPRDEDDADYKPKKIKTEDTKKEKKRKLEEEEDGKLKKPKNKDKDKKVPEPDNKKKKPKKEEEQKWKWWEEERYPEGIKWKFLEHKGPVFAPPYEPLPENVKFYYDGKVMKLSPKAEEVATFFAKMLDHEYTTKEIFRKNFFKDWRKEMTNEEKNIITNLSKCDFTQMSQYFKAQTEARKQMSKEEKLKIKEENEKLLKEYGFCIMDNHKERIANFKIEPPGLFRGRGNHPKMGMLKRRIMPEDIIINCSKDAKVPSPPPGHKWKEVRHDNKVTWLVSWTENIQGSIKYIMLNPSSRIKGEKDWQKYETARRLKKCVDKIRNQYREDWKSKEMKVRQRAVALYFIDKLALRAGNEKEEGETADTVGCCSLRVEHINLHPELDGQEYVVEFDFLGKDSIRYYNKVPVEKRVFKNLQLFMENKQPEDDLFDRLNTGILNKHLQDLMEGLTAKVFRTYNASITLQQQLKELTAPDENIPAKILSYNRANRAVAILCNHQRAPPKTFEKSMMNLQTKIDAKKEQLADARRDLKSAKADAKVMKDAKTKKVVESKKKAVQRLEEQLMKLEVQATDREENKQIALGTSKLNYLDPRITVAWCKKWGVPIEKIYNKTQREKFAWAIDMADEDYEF
Kind of assay: Inhibition of recombinant TOP1 (unknown origin) using 3'-[32P]-labeled 117 bp DNA oligonucleotide assessed as TOP1-mediated DNA cleavage by measuring induction and stabilization of cleavage sites 17, 35 and 79 incubated for 20 mins by PAGE analysis.

The test system of a further assay is MCF7. In words: cells. The note with it: Homo sapiens, MCF7, 72 h.
Assay [2] deals with T1, DNA topoisomerase 1 (Homo sapiens). Kind of assay: Inhibition of recombinant TOP1 (unknown origin) using 3'-[32P]-labeled 117 bp DNA oligonucleotide assessed as […] TOP1-mediated DNA cleavage incubated for 20 mins by PAGE analysis relative to 1 uM CPT.
For assay [3] the target is unchanged. In words: Inhibition of recombinant TOP1 (unknown origin) using 3'-[32P]-labeled 117 bp DNA oligonucleotide assessed as TOP1-mediated DNA cleavage by measuring induction and stabilization of cleavage sites 17, 35 and 79 at 1 uM incubated for 20 mins by PAGE analysis.
The target is the same in assay [4]. In words: Inhibition of TOP1 in human HCT116 cells assessed as induction of cellular TOP1cc formation incubated for 1 hr by chemiluminescence based assay. It is filed as cell-based.
For assay [5] the target is unchanged. Kind of assay: Inhibition of TOP1 in human HCT116 cells assessed as induction of cellular TOP1cc formation at 25 uM incubated for 1 hr by chemiluminescence based assay. Format: cell-based.
Assay [6] shares this target. In words: Inhibition of TOP1 in human HCT116 cells assessed as induction of DNA damage by measuring increase in gammaH2AX foci at 1 uM incubated for 3 hrs by DAPI staining based immunofluorescence microscopic method. Format: cell-based.

The source of these data is ChEMBL document CHEMBL4364246, “Synthesis and biological evaluation of 5-aminoethyl benzophenanthridone derivatives as DNA topoisomerase IB inhibitors” (Eur J Med Chem, 2019).

SMILES strings stand for the structures. Calls of active or inactive are those of the source. No cut-off for these calls is given here.

Turning to `COc1cc2c(=O)n(CCNS(=O)(=O)C3CC3)c3c4cc5c(cc4ccc3c2cc1OC)OCO5`, the GI50 in the assay with A549 amounted to 4.3 µM; in the assay with HCT-116, 5.2 µM; in the assay with DU-145, 1.3 µM; in the assay with MCF7 it was 3 µM. Besides, the Activity result in assay [1] was “Dose-dependent effect”. In assay [2], the inhibition was 50 to 75%.
Turning to `COc1cc2c(=O)n(CCN(C)P(=O)(OC)OC)c3c4cc5c(cc4ccc3c2cc1OC)OCO5`, the GI50 was found to be 14 µM with A549, 9.2 µM in the assay with HCT-116, 5.3 µM in the assay on DU-145 and 10 µM in the assay on MCF7. In assay [1], the Activity entry is “Dose-dependent effect”. In assay [2], the inhibition is 50 to 75%.
Turning to `COc1cc2c(=O)n(CCNS(=O)(=O)N3CCOCC3)c3c4cc5c(cc4ccc3c2cc1OC)OCO5`, the 50% growth inhibitory concentration (GI50) in the assay on A549 was determined as 2.9 µM; in the assay on HCT-116, 1.1 µM; in the assay with DU-145 it was 1.6 µM; in the assay on MCF7, 0.89 µM. The Activity result in assay [1] was “Dose-dependent effect”. Moreover, the inhibition in assay [2] lay in the range of 50 to 75%.
With `COc1cc2c(=O)n(CCN(C)S(=O)(=O)N3CCCC3)c3c4cc5c(cc4ccc3c2cc1OC)OCO5`, the GI50 was 5.3 µM with A549, 2.5 µM in the assay with HCT-116, 3.1 µM in the assay with DU-145 and 3.8 µM in the assay on MCF7. For the same compound, in assay [2], the inhibition is 20 to 50%.
Taken in the same sequence, the figures for `COc1cc2c(=O)n(CCN(C)S(=O)(=O)N3CCOCC3)c3c4cc5c(cc4ccc3c2cc1OC)OCO5` were 35 µM, 40 µM, 48 µM, 64 µM and 20 to 50%.
For the compound `COc1cc2c(=O)n(CCN(C)P3(=O)OCCO3)c3c4cc5c(cc4ccc3c2cc1OC)OCO5`, the Activity result in assay [1] was “Dose-dependent effect”. Moreover, the inhibition in [2] was in the range of 50 to 75%.
Turning to `COc1cc2c(=O)n(CCN(C)S(=O)(=O)C3CC3)c3c4cc5c(cc4ccc3c2cc1OC)OCO5`, the GI50 in the assay on A549 turned out to be 15 µM; with HCT-116 it was 7.9 µM; with DU-145, 10 µM; in the assay with MCF7, 5.8 µM. The inhibition in [2] was in the range of 20 to 50%.
As to `COc1cc2c(=O)n(CCN(C)S(=O)(=O)C(F)(F)F)c3c4cc5c(cc4ccc3c2cc1OC)OCO5`, the GI50 in the assay with A549 was 42 µM; in the assay with HCT-116, 86 µM; in the assay with DU-145 it was 65 µM; in the assay with MCF7, 35 µM. For the same compound, the inhibition in assay [2] was 0 to 50%.
For the compound `CC[C@@]1(O)C(=O)OCc2c1cc1n(c2=O)Cc2cc3ccccc3nc2-1`, in assay [3], the result was inactive. Further, the Activity entry in [4] was “Dose-dependent effect”. Besides, the outcome in [5] and in assay [6] was Active.
Consider `COc1cc2c(=O)n(CCNS(=O)(=O)N3CCCC3)c3c4cc5c(cc4ccc3c2cc1OC)OCO5`, for which the GI50 in the assay with A549 was 61 µM; with HCT-116, 34 µM; in the assay with DU-145, 79 µM; in the assay on MCF7 it was 38 µM. For the same compound, the inhibition in assay [2] was 0 to 50%.
The matching figures for `COc1cc2c(=O)n(CCNS(=O)(=O)N(C)C)c3c4cc5c(cc4ccc3c2cc1OC)OCO5`: 35 µM, 30 µM, 45 µM, 21 µM and 20 to 50%.
For `COc1cc2c3c(n(CCCNCCO)c(=O)c2cc1OC)-c1cc2c(cc1C3=O)OCO2`, the result in [3] was Active.
For `COc1cc2c(=O)n(CCNC(=O)C3CC3)c3c4cc5c(cc4ccc3c2cc1OC)OCO5`, the GI50 in the assay on A549 turned out to be 1.3 µM; with HCT-116 it was 5.3 µM; with DU-145, 7.8 µM; with MCF7, 2.2 µM. Moreover, in [2], the inhibition was 20 to 50%.
Turning to `COc1cc2c(=O)n(C)c3c4cc5c(cc4ccc3c2cc1OC)OCO5`, the GI50 with A549 turned out to be 39 µM; in the assay on HCT-116, 74 µM; in the assay on DU-145, 64 µM; in the assay with MCF7, 31 µM.
`COc1cc2c(=O)n(CCN(C)S(=O)(=O)N(C)C)c3c4cc5c(cc4ccc3c2cc1OC)OCO5`: the GI50 stood at 7.9 µM in the assay on A549, 0.96 µM in the assay with HCT-116, 15 µM in the assay on DU-145 and 1.5 µM in the assay with MCF7. The inhibition in assay [2] was 20 to 50%.
Taken in the same sequence, the figures for `COc1cc2c(=O)n(CCNP(=O)(OC)OC)c3c4cc5c(cc4ccc3c2cc1OC)OCO5` were 41 µM, 51 µM, 39 µM, 48 µM and 0 to 50%.
